Here are results for 18 compounds from patent US9938322B2, “β-hairpin peptidomimetics” (priority 2013, dated 2018).

Where a SMILES comes first, the peptide text is derived from it. [ ]: non-standard residue; d: D form. Phe(4-CF3) = N[C@@H](Cc1ccc(C(F)(F)F)cc1)C(=O)O; Chg = N[C@H](C(=O)O)C1CCCCC1; Phg = N[C@H](C(=O)O)c1ccccc1; Tle = CC(C)(C)[C@H](N)C(=O)O; dDab = NCC[C@@H](N)C(=O)O; Orn = NCCC[C@H](N)C(=O)O; Dab = NCC[C@H](N)C(=O)O; Nva = CCC[C@H](N)C(=O)O

The subject of this series is human red blood cells (hRBC). The series can be described thus: Hemolysis of human red blood cells. The series is classed as cell-based. To be noted: red cells of human, 1 h, 100. The method, boiled down:
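Washed fresh human erythrocytes (20% v/v, about 0.9×10^9 cells/ml final) incubated with peptide at 100 μg/ml for 1 h at 37° C with shaking. Supernatant OD540 read; hemolysis expressed relative to 2.5% Triton X-100 (100%) and PBS with 0.001% acetic acid (0%).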
Regarding `CCC[C@@H]1NC(=O)[C@@H]2CCCN2C(=O)[C@H]2CCCN2C(=O)[C@H](CO)NC(=O)[C@H](C)NC(=O)[C@H](C(C)(C)C)NC(=O)[C@H](CCN)NC(=O)[C@H](Cc2c[nH]c3ccccc23)NC(=O)[C@H](CCN)NC(=O)[C@@H](CCN)NC(=O)[C@H](CCCN)NC(=O)[C@H](CCN)NC(=O)[C@H](Cc2ccc(C(F)(F)F)cc2)NC(=O)[C@H](CO)NC1=O` [compound 106] (cyclo([Nva]S[Phe(4-CF3)][Dab][Orn][dDab][Dab]W[Dab][Tle]AS[dP]P)), the “Hemolysis at 100 μg/ml” value is on record as 2%.

`CC(C)C[C@@H]1NC(=O)[C@@H]2CCCN2C(=O)[C@H]2CCCN2C(=O)[C@H](CO)NC(=O)[C@H](C)NC(=O)[C@H](c2ccccc2)NC(=O)[C@H](CCN)NC(=O)[C@H](Cc2c[nH]c3ccccc23)NC(=O)[C@H](CCN)NC(=O)[C@@H](CCN)NC(=O)[C@H](CCCN)NC(=O)[C@H](CCN)NC(=O)[C@H](Cc2ccc(O)cc2)NC(=O)[C@H](CO)NC1=O` [compound 107] (cyclo(LSY[Dab][Orn][dDab][Dab]W[Dab][Phg]AS[dP]P)): the “Hemolysis at 100 μg/ml” value was found to be 2%.

For the compound `CC(C)C[C@@H]1NC(=O)[C@@H]2CCCN2C(=O)[C@H]2CCCN2C(=O)[C@H](CO)NC(=O)[C@H](C)NC(=O)[C@H](Cc2c[nH]c3ccccc23)NC(=O)[C@H](CCN)NC(=O)[C@H](Cc2c[nH]c3ccccc23)NC(=O)[C@H](CCN)NC(=O)[C@@H](CCN)NC(=O)[C@H](CCCCN)NC(=O)[C@H](CCN)NC(=O)[C@H](Cc2ccc(O)cc2)NC(=O)[C@H](CO)NC1=O` [compound 108] (cyclo(LSY[Dab]K[dDab][Dab]W[Dab]WAS[dP]P)), the “Hemolysis at 100 μg/ml” value amounted to 1%.

For the compound `CC(C)C[C@@H]1NC(=O)[C@@H]2CCCN2C(=O)[C@H]2CCCN2C(=O)[C@H](CO)NC(=O)[C@H](C)NC(=O)[C@H](Cc2c[nH]c3ccccc23)NC(=O)[C@H](CCN)NC(=O)[C@H](Cc2c[nH]c3ccccc23)NC(=O)[C@H](CCN)NC(=O)[C@@H](CCN)NC(=O)[C@H](CCCN)NC(=O)[C@H](CCN)NC(=O)[C@H](Cc2c[nH]c3ccccc23)NC(=O)[C@H](CO)NC1=O` [compound 109] (cyclo(LSW[Dab][Orn][dDab][Dab]W[Dab]WAS[dP]P)), the “Hemolysis at 100 μg/ml” value came out at 2%.

For the compound `CC[C@H](C)[C@@H]1NC(=O)[C@@H]2CCCN2C(=O)[C@H]2CCCN2C(=O)[C@H](CO)NC(=O)[C@H](C)NC(=O)[C@H](Cc2c[nH]c3ccccc23)NC(=O)[C@H](CCN)NC(=O)[C@H](Cc2c[nH]c3ccccc23)NC(=O)[C@H](CCN)NC(=O)[C@@H](CCN)NC(=O)[C@H](CCCN)NC(=O)[C@H](CCN)NC(=O)[C@H](Cc2ccc(O)cc2)NC(=O)[C@H](CO)NC1=O` [compound 110] (cyclo(ISY[Dab][Orn][dDab][Dab]W[Dab]WAS[dP]P)), the “Hemolysis at 100 μg/ml” value was found to be 1%.

With `CC(C)C[C@@H]1NC(=O)[C@@H]2CCCN2C(=O)[C@H]2CCCN2C(=O)[C@H](CO)NC(=O)[C@H](CO)NC(=O)[C@H](Cc2c[nH]c3ccccc23)NC(=O)[C@H](CCN)NC(=O)[C@H](Cc2c[nH]c3ccccc23)NC(=O)[C@H](CCN)NC(=O)[C@@H](CCN)NC(=O)[C@H](CCCN)NC(=O)[C@H](CCN)NC(=O)[C@H](Cc2ccc(O)cc2)NC(=O)[C@H](CO)NC1=O` [compound 111] (cyclo(LSY[Dab][Orn][dDab][Dab]W[Dab]WSS[dP]P)), the “Hemolysis at 100 μg/ml” value was 1%.

Regarding `CC(C)C[C@@H]1NC(=O)[C@@H]2CCCN2C(=O)[C@H]2CCCN2C(=O)[C@H](CO)NC(=O)[C@H](Cc2ccc(O)cc2)NC(=O)[C@H](C(C)(C)C)NC(=O)[C@H](CCN)NC(=O)[C@H](Cc2c[nH]c3ccccc23)NC(=O)[C@H](CCN)NC(=O)[C@@H](CCN)NC(=O)[C@H](CCCN)NC(=O)[C@H](CCN)NC(=O)[C@H](Cc2ccc(O)cc2)NC(=O)[C@H](CC(=O)O)NC1=O` [compound 112] (cyclo(LDY[Dab][Orn][dDab][Dab]W[Dab][Tle]YS[dP]P)), the “Hemolysis at 100 μg/ml” value is given as 0%.

Take `CC(C)C[C@@H]1NC(=O)[C@@H]2CCCN2C(=O)[C@H]2CCCN2C(=O)[C@H](CO)NC(=O)[C@H](Cc2ccc(O)cc2)NC(=O)[C@H](C(C)(C)C)NC(=O)[C@H](CCN)NC(=O)[C@H](Cc2c[nH]c3ccccc23)NC(=O)[C@H](CCN)NC(=O)[C@@H](CCN)NC(=O)[C@H](CCCN)NC(=O)[C@H](CCN)NC(=O)[C@H](Cc2ccc(O)cc2)NC(=O)[C@H]([C@@H](C)O)NC1=O` [compound 113] (cyclo(LTY[Dab][Orn][dDab][Dab]W[Dab][Tle]YS[dP]P)): the “Hemolysis at 100 μg/ml” value was found to be 0%.

Regarding `CC(C)C[C@@H]1NC(=O)[C@@H]2CCCN2C(=O)[C@H]2CCCN2C(=O)[C@H](CO)NC(=O)[C@H](CCN)NC(=O)[C@H](C(C)(C)C)NC(=O)[C@H](CCN)NC(=O)[C@H](Cc2c[nH]c3ccccc23)NC(=O)[C@H](CCN)NC(=O)[C@@H](CCN)NC(=O)[C@H](CCCN)NC(=O)[C@H](CCN)NC(=O)[C@H](Cc2ccc(O)cc2)NC(=O)[C@H](CC(=O)O)NC1=O` [compound 114] (cyclo(LDY[Dab][Orn][dDab][Dab]W[Dab][Tle][Dab]S[dP]P)), the “Hemolysis at 100 μg/ml” value stood at 0.5%.

In the case of `CC(C)C[C@@H]1NC(=O)[C@@H]2CCCN2C(=O)[C@H]2CCCN2C(=O)[C@H](CO)NC(=O)[C@H](CCN)NC(=O)[C@H](C(C)(C)C)NC(=O)[C@H](CCN)NC(=O)[C@H](Cc2c[nH]c3ccccc23)NC(=O)[C@H](CCN)NC(=O)[C@@H](CCN)NC(=O)[C@H](CCCN)NC(=O)[C@H](CCN)NC(=O)[C@H](Cc2ccc(O)cc2)NC(=O)[C@H]([C@@H](C)O)NC1=O` [compound 115] (cyclo(LTY[Dab][Orn][dDab][Dab]W[Dab][Tle][Dab]S[dP]P)), the “Hemolysis at 100 μg/ml” value is reported as 0%.

In the case of `CC(C)C[C@@H]1NC(=O)[C@@H]2CCCN2C(=O)[C@H]2CCCN2C(=O)[C@H](CO)NC(=O)[C@H](CO)NC(=O)[C@H](C2CCCCC2)NC(=O)[C@H](CCN)NC(=O)[C@H](Cc2c[nH]c3ccccc23)NC(=O)[C@H](CCN)NC(=O)[C@@H](CCN)NC(=O)[C@H](CCCN)NC(=O)[C@H](CCN)NC(=O)[C@H](Cc2ccc(O)cc2)NC(=O)[C@H](CO)NC1=O` [compound 116] (cyclo(LSY[Dab][Orn][dDab][Dab]W[Dab][Chg]SS[dP]P)), the “Hemolysis at 100 μg/ml” value is reported as 3%.

Turning to `CC(C)C[C@@H]1NC(=O)[C@@H]2CCCN2C(=O)[C@H]2CCCN2C(=O)[C@H](CO)NC(=O)[C@H](CO)NC(=O)[C@H](C(C)(C)C)NC(=O)[C@H](CCN)NC(=O)[C@H](Cc2c[nH]c3ccccc23)NC(=O)[C@H](CCN)NC(=O)[C@@H](CCN)NC(=O)[C@H](CCCN)NC(=O)[C@H](CCN)NC(=O)[C@H](Cc2ccc(O)cc2)NC(=O)[C@H](CO)NC1=O` [compound 117] (cyclo(LSY[Dab][Orn][dDab][Dab]W[Dab][Tle]SS[dP]P)), the “Hemolysis at 100 μg/ml” value is on record as 3%.

On to `CCC[C@@H]1NC(=O)[C@@H]2CCCN2C(=O)[C@H]2CCCN2C(=O)[C@H](CO)NC(=O)[C@H](CO)NC(=O)[C@H](C(C)(C)C)NC(=O)[C@H](CCN)NC(=O)[C@H](Cc2c[nH]c3ccccc23)NC(=O)[C@H](CCN)NC(=O)[C@@H](CCN)NC(=O)[C@H](CCCN)NC(=O)[C@H](CCN)NC(=O)[C@H](Cc2ccc(O)cc2)NC(=O)[C@H](CO)NC1=O` [compound 118] (cyclo([Nva]SY[Dab][Orn][dDab][Dab]W[Dab][Tle]SS[dP]P)), for which the “Hemolysis at 100 μg/ml” value was determined as 1%.

Regarding `CC(C)C[C@@H]1NC(=O)[C@@H]2CCCN2C(=O)[C@H]2CCCN2C(=O)[C@H](CO)NC(=O)[C@H](CC(N)=O)NC(=O)[C@H](C(C)(C)C)NC(=O)[C@H](CCN)NC(=O)[C@H](Cc2c[nH]c3ccccc23)NC(=O)[C@H](CCN)NC(=O)[C@@H](CCN)NC(=O)[C@H](CCCN)NC(=O)[C@H](CCN)NC(=O)[C@H](Cc2ccc(O)cc2)NC(=O)[C@H]([C@@H](C)O)NC1=O` [compound 119] (cyclo(LTY[Dab][Orn][dDab][Dab]W[Dab][Tle]NS[dP]P)), the “Hemolysis at 100 μg/ml” value is listed as 1%.

As for `CC(C)C[C@@H]1NC(=O)[C@@H]2CCCN2C(=O)[C@H]2CCCN2C(=O)[C@H](CO)NC(=O)[C@H]([C@@H](C)O)NC(=O)[C@H](C(C)(C)C)NC(=O)[C@H](CCN)NC(=O)[C@H](Cc2c[nH]c3ccccc23)NC(=O)[C@H](CCN)NC(=O)[C@@H](CCN)NC(=O)[C@H](CCCN)NC(=O)[C@H](CCN)NC(=O)[C@H](Cc2ccc(O)cc2)NC(=O)[C@H](CC(N)=O)NC1=O` [compound 120] (cyclo(LNY[Dab][Orn][dDab][Dab]W[Dab][Tle]TS[dP]P)), the “Hemolysis at 100 μg/ml” value was 0%.

With `CC(C)C[C@@H]1NC(=O)[C@@H]2CCCN2C(=O)[C@H]2CCCN2C(=O)[C@H](CO)NC(=O)[C@H](CC(N)=O)NC(=O)[C@H](C(C)(C)C)NC(=O)[C@H](CCN)NC(=O)[C@H](Cc2c[nH]c3ccccc23)NC(=O)[C@H](CCN)NC(=O)[C@@H](CCN)NC(=O)[C@H](CCCN)NC(=O)[C@H](CCN)NC(=O)[C@H](Cc2ccc(O)cc2)NC(=O)[C@H](CC(N)=O)NC1=O` [compound 121] (cyclo(LNY[Dab][Orn][dDab][Dab]W[Dab][Tle]NS[dP]P)), the “Hemolysis at 100 μg/ml” value amounted to 0%.

In the case of `CC(C)C[C@@H]1NC(=O)[C@@H]2CCCN2C(=O)[C@H]2CCCN2C(=O)[C@H](CO)NC(=O)[C@H]([C@@H](C)O)NC(=O)[C@H](C(C)(C)C)NC(=O)[C@H](CCN)NC(=O)[C@H](Cc2c[nH]c3ccccc23)NC(=O)[C@H](CCN)NC(=O)[C@@H](CCN)NC(=O)[C@H](CCCN)NC(=O)[C@H](CCN)NC(=O)[C@H](Cc2ccc(O)cc2)NC(=O)[C@H]([C@@H](C)O)NC1=O` [compound 122] (cyclo(LTY[Dab][Orn][dDab][Dab]W[Dab][Tle]TS[dP]P)), the “Hemolysis at 100 μg/ml” value worked out at 0%.

As for `CC(C)C[C@@H]1NC(=O)[C@@H]2CCCN2C(=O)[C@H]2CCCN2C(=O)[C@H](CO)NC(=O)[C@H](CC(N)=O)NC(=O)[C@H](C(C)(C)C)NC(=O)[C@H](CCN)NC(=O)[C@H](Cc2c[nH]c3ccccc23)NC(=O)[C@H](CCN)NC(=O)[C@@H](CCN)NC(=O)[C@H](CCCN)NC(=O)[C@H](CCN)NC(=O)[C@H](Cc2ccc(O)cc2)NC(=O)[C@H](CC(=O)O)NC1=O` [compound 123] (cyclo(LDY[Dab][Orn][dDab][Dab]W[Dab][Tle]NS[dP]P)), the “Hemolysis at 100 μg/ml” value is reported as 0%.
